The target of this assay is T1, hMAGL (Homo sapiens, UniProt Q99685).
T1 sequence (Q99685 1-303): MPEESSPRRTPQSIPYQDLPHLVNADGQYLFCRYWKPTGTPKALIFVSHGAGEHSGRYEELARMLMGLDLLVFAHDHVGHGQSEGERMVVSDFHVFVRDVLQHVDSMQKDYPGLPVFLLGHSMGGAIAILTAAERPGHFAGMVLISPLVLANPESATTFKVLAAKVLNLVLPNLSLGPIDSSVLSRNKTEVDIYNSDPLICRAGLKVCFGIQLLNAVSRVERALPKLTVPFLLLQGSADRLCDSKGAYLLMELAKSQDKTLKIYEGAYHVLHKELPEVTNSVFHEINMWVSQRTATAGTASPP
Description: 2-AG assay: MAGL inhibition, hydrolysis of 2-arachidonoylglycerol to arachidonic acid followed by mass spectrometry. Format: biochemical. The gist of the method:
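Read-out is LC-MS/MS of arachidonic acid released from 2-arachidonoylglycerol (8 μM final), normalised to d8-arachidonic acid internal standard after acetonitrile quench. Enzyme […] and compound were pre-mixed 15 min, then reacted 30 min, both at RT, in Tris/EDTA buffer with 0.01% Tween-20 and 2.5% DMSO.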

Compound `CC(F)(F)c1noc(CN2CC3(C2)CN(C(=O)N2CC4(CC(n5cnc(C(F)(F)F)n5)C4)C2)C3)n1` [Example 258, [6-[[3-(1,1-difluoroethyl)-1,2,4-oxadiazol-5-yl]methyl]-2,6-diazaspiro[3.3]heptan-2-yl]-[6-[3-(trifluoromethyl)-1,2,4-triazol-1-yl]-2-azaspiro[3.3]heptan-2-yl]methanone] had an IC50 of 53 nM.
Turning to `Cn1nc(CC2CC3(C2)CN(C(=O)N2CC4(CC(n5cnc(C6(N)CC6)n5)C4)C2)C3)cc1C(F)(F)F` [Example 330, [6-[3-(1-aminocyclopropyl)-1,2,4-triazol-1-yl]-2-azaspiro[3.3]heptan-2-yl]-[6-[[l-methyl-5-(trifluoromethyl)pyrazol-3-yl]methyl]-2-azaspiro[3.3]heptan-2-yl]methanone], half-maximal inhibition (IC50) was put at 11.8 nM.
`Cn1ncc(C(F)(F)F)c1CN1CCC2(CC1)CN(C(=O)N1CC3(CC(n4cnc(C(F)(F)F)n4)C3)C1)C2` [Example 65, [7-[[2-methyl-4-(trifluoromethyl)pyrazol-3-yl]methyl]-2,7-diazaspiro[3.5]nonan-2-yl]-[6-[3-(trifluoromethyl)-1,2,4-triazol-1-yl]-2-azaspiro[3.3]heptan-2-yl]methanone]: it took 0.87 nM to reach half-maximal inhibition (IC50).
The result for `Cn1nc(C2CC2)cc1CN1CC2(C1)CN(C(=O)N1CC3(CC(c4cc(C5CC5)n[nH]4)C3)C1)C2` [Example 270, [6-[(5-cyclopropyl-2-methyl-pyrazol-3-yl)methyl]-2,6-diazaspiro[3.3]heptan-2-yl]-[6-(3-cyclopropyl-1H-pyrazol-5-yl)-2-azaspiro[3.3]heptan-2-yl]methanone] reads 4.89 nM; that for `O=C(N1CC2(CC(Cn3cc(C(F)(F)F)cn3)C2)C1)N1CC2(CC(n3cnc(C4(O)CC4)n3)C2)C1` [Example 12], 8.67 nM; that for `O=C(N1CC2(CC(n3cnc(C(F)(F)F)n3)C2)C1)N1CC2(CN(Cc3nc(C(F)(F)F)n[nH]3)C2)C1` [Example 229, [6-[3-(trifluoromethyl)-1,2,4-triazol-1-yl]-2-azaspiro[3.3]heptan-2-yl]-[6-[[3-(trifluoromethyl)-1H-1,2,4-triazol-5-yl]methyl]-2,6-diazaspiro[3.3]heptan-2-yl]methanone], 1200 nM.
In turn, `O=C(N1CC2(CC(n3cnc(C4CC4)n3)C2)C1)N1CC2(CN(Cc3ccn(C(F)(F)F)n3)C2)C1` [Example 117, [6-(3-cyclopropyl-1,2,4-triazol-1-yl)-2-azaspiro[3.3]heptan-2-yl]-[6-[[1-(trifluoromethyl)pyrazol-3-yl]methyl]-2,6-diazaspiro[3.3]heptan-2-yl]methanone] displayed an IC50 of 16 nM.
For the compound `O=C(N1CC2(CC(Cn3ccc(C4CC4)n3)C2)C1)N1CC2(CC(n3cnc(C(F)(F)F)n3)C2)C1` [Example 142, [6-[(3-cyclopropylpyrazol-1-yl)methyl]-2-azaspiro[3.3]heptan-2-yl]-[6-[3-(trifluoromethyl)-1,2,4-triazol-1-yl]-2-azaspiro[3.3]heptan-2-yl]methanone], the midpoint of inhibition, the IC50, lay at 0.94 nM.
Compound `Cn1nc(CC2CC3(C2)CN(C(=O)N2CC4(CC(n5cnc(C6(O)CC6)n5)C4)C2)C3)c(C(F)(F)F)n1` [Example 137] displayed an IC50 of 2.4 nM.
With `O=C(N1CC2(CC(Cn3cnc(C(F)(F)F)c3)C2)C1)N1CC2(CC(c3cc(C4CC4)n[nH]3)C2)C1` [Example 39, [6-(3-cyclopropyl-1H-pyrazol-5-yl)-2-azaspiro[3.3]heptan-2-yl]-[6-[[4-(trifluoromethyl)imidazol-1-yl]methyl]-2-azaspiro[3.3]heptan-2-yl]methanone], it took 1.56 nM to reach half-maximal inhibition (IC50).
The compound `O=C(N1CC2(CC(n3cnc(C(F)(F)F)n3)C2)C1)N1CC2(CN(Cc3ncc(C(F)(F)F)s3)C2)C1` [Example 149] displayed an IC50 of 1.78 nM.
`O=C(N1CC2(CC(n3cnc(C(F)(F)F)n3)C2)C1)N1CC2(CN(Cc3nnn(CC(F)(F)F)n3)C2)C1` [Example 193, [6-[[2-(2,2,2-trifluoroethyl)tetrazol-5-yl]methyl]-2,6-diazaspiro[3.3]heptan-2-yl]-[6-[3-(trifluoromethyl)-1,2,4-triazol-1-yl]-2-azaspiro[3.3]heptan-2-yl]methanone]: half-maximal inhibition (IC50) was put at 730 nM.
`Cn1ncc(CN2CC3(C2)CN(C(=O)N2CC4(CC(n5cnc(C6CC6)n5)C4)C2)C3)c1S(N)(=O)=O` [Example 251] came in with an IC50 of 368 nM.
With `O=C(N1CC2(CC(Cc3cc(C(F)F)n[nH]3)C2)C1)N1CC2(CC(n3cnc(C(F)(F)F)n3)C2)C1` [Example 295, [6-[[3-(difluoromethyl)-1H-pyrazol-5-yl]methyl]-2-azaspiro[3.3]heptan-2-yl]-[6-[3-(trifluoromethyl)-1,2,4-triazol-1-yl]-2-azaspiro[3.3]heptan-2-yl]methanone] the figure was 1.11 nM; with `Cn1nnc(CN2CC3(C2)CN(C(=O)N2CC4(CC(n5cnc(C6CC6)n5)C4)C2)C3)c1C(F)(F)F` [Example 244, [6-(3-cyclopropyl-1,2,4-triazol-1-yl)-2-azaspiro[3.3]heptan-2-yl]-[6-[[1-methyl-5-(trifluoromethyl)triazol-4-yl]methyl]-2,6-diazaspiro[3.3]heptan-2-yl]methanone], 22.9 nM; with `CC(C)(C)c1c[nH]c(CN2CC3(C2)CN(C(=O)N2CC4(CC(n5cnc(C(F)(F)F)n5)C4)C2)C3)n1` [Example 252, [6-[(4-tert-butyl-1H-imidazol-2-yl)methyl]-2,6-diazaspiro[3.3]heptan-2-yl]-[6-[3-(trifluoromethyl)-1,2,4-triazol-1-yl]-2-azaspiro[3.3]heptan-2-yl]methanone], 117 nM.
In the case of `O=C(N1CC2(CC(Cc3cc(C(F)(F)F)n[nH]3)C2)C1)N1CC2(CC(n3cnc(C(F)(F)F)n3)C2)C1` [Example 298, [6-[[3-(trifluoromethyl)-1H-pyrazol-5-yl]methyl]-2-azaspiro[3.3]heptan-2-yl]-[6-[3-(trifluoromethyl)-1,2,4-triazol-1-yl]-2-azaspiro[3.3]heptan-2-yl]methanone], the midpoint of inhibition, the IC50, lay at 0.23 nM.
On to `O=C(N1CC2(CC(n3cnc(C(F)(F)F)n3)C2)C1)N1CC2(CN(Cc3sncc3C(F)(F)F)C2)C1` [Example 178, [6-[[4-(trifluoromethyl)isothiazol-5-yl]methyl]-2,6-diazaspiro[3.3]heptan-2-yl]-[6-[3-(trifluoromethyl)-1,2,4-triazol-1-yl]-2-azaspiro[3.3]heptan-2-yl]methanone], for which the IC50 was found to be 10.5 nM. This IC50 is about 46-fold higher than that of the compound before.
With `O=C(N1CC2(CC(Oc3cnn(CC(F)(F)F)c3)C2)C1)N1CC2(CC(n3cnc(C4CC4)n3)C2)C1` [Example 249, [6-(3-cyclopropyl-1,2,4-triazol-1-yl)-2-azaspiro[3.3]heptan-2-yl]-[6-[1-(2,2,2-trifluoroethyl)pyrazol-4-yl]oxy-2-azaspiro[3.3]heptan-2-yl]methanone] the figure was 10.8 nM.
With `O=C(N1CC2(CC(n3cnc(C4CC4)n3)C2)C1)N1CC2(CN(Cc3nccn3CC(F)(F)F)C2)C1` [Example 234, [6-(3-cyclopropyl-1,2,4-triazol-1-yl)-2-azaspiro[3.3]heptan-2-yl]-[6-[[1-(2,2,2-trifluoroethyl)imidazol-2-yl]methyl]-2,6-diazaspiro[3.3]heptan-2-yl]methanone] the figure was 41.3 nM; with `O=C(N1CC2(CC(n3cnc(C(F)(F)F)n3)C2)C1)N1CC2(CN(Cc3cc(C4CCC4)[nH]n3)C2)C1` [Example 273, [6-[(5-cyclobutyl-1H-pyrazol-3-yl)methyl]-2,6-diazaspiro[3.3]heptan-2-yl]-[6-[3-(trifluoromethyl)-1,2,4-triazol-1-yl]-2-azaspiro[3.3]heptan-2-yl]methanone], 12 nM; with `O=C(N1CC2(CC(n3cnc(C4CC4)n3)C2)C1)N1CC2(CN(Cc3cnc(C(F)(F)F)o3)C2)C1` [Example 212, [6-(3-cyclopropyl-1,2,4-triazol-1-yl)-2-azaspiro[3.3]heptan-2-yl]-[6-[[2-(trifluoromethyl)oxazol-5-yl]methyl]-2,6-diazaspiro[3.3]heptan-2-yl]methanone], 13.1 nM.
Consider `O=C(N1CC2(CC(n3cnc(C(F)(F)F)n3)C2)C1)N1CC2(CN(Cc3nccn3C(F)(F)F)C2)C1` [Example 235, [6-[[1-(trifluoromethyl)imidazol-2-yl]methyl]-2,6-diazaspiro[3.3]heptan-2-yl]-[6-[3-(trifluoromethyl)-1,2,4-triazol-1-yl]-2-azaspiro[3.3]heptan-2-yl]methanone], for which it took 68.7 nM to reach half-maximal inhibition (IC50).
In turn, `O=C(N1CC2(CC(n3cnc(C4CC4)n3)C2)C1)N1CC2(CN(Cc3nc(C4CC4)ns3)C2)C1` [Example 44, [6-[(3-cyclopropyl-1,2,4-thiadiazol-5-yl)methyl]-2,6-diazaspiro[3.3]heptan-2-yl]-[6-(3-cyclopropyl-1,2,4-triazol-1-yl)-2-azaspiro[3.3]heptan-2-yl]methanone] displayed an IC50 of 5.42 nM.
Compound `O=C(N1CC2(CC(n3cnc(C(F)(F)F)n3)C2)C1)N1CC2(CN(Cc3conc3C(F)(F)F)C2)C1` [Example 218, [6-[[3-(trifluoromethyl)isoxazol-4-yl]methyl]-2,6-diazaspiro[3.3]heptan-2-yl]-[6-[3-(trifluoromethyl)-1,2,4-triazol-1-yl]-2-azaspiro[3.3]heptan-2-yl]methanone] yielded an IC50 of 31.9 nM.
Take `Cn1cnc(C#N)c1CN1CC2(C1)CN(C(=O)N1CC3(CC(n4cnc(C(F)(F)F)n4)C3)C1)C2` [Example 280, 1-methyl-5-[[2-[6-[3-(trifluoromethyl)-1,2,4-triazol-1-yl]-2-azaspiro[3.3]heptane-2-carbonyl]-2,6-diazaspiro[3.3]heptan-6-yl]methyl]imidazole-4-carbonitrile]: the IC50 was found to be 636 nM.

The values are drawn from patent US20260374756A1, “HETEROCYCLIC COMPOUNDS AS INHIBITORS OF MONOACYLGLYCEROL LIPASE (MAGL)” (Hoffmann-La Roche Inc., priority 2022, published 2026).
